The test system of data set [1] is colon cancer (HT-29) cell line. Put plainly: Antiproliferative MTT assay, HT-29. The format is cell-based. The following applies: Homo sapiens, HT-29 colon cancer cells, read-out: Antiproliferative activity IC50 ± SEM HT-29.
A short description of data set [2]: Cell viability, MTT test on normal cell line. In kind it is cell-based. Conditions: human, MCF-10A mammary gland epithelial cells (normal cell line), MCF-10A normal cells, 4 days incubation. On the procedure: The human mammary gland epithelial (MCF-10A) normal cell line was used to test the viability of novel compounds 9a-o ([Mahmoud et al., 2022]; [Mekheimer et al., 2022]). After 4 days of incubation on MCF-10A cells, the cell viability of compounds 9a-o was determined using the MTT test.
The human mammary gland epithelial (MCF-10A) normal cell line was used to test the viability of compounds 9a-o ([Mahmoud et al., 2022]; [Mekheimer et al., 2022]). Refer to Supplementary Appendix A (Supplementary Material) for more details.
4.2. Biological evaluation
4.2.1. Cytotoxic activity using MTT Assay and evaluation of IC50
MTT assay was carried out to study the effect of compounds on mammary epithelial cells (MCF-10A). The medium in which cells were propagated contained Dulbecco's modified Eagle's medium (DMEM)/ Ham's F-12 medium (1:1) supplemented with epidermal growth factor (20 ng/mL), hydrocortisone (500 ng/mL), insulin (10 μg/mL), 2 mM glutamine and 10% foetal calf serum.
After every 2-3 days, the cells were passaged using trypsin ethylenediamine tetra acetic acid (EDTA). The cells were seeded at a density of 10^4 cells mL-1 in flat-bottomed culture plates containing 96 wells each. After 24 h, medium was removed from the plates and the compounds in (in 0.1% DMSO) were added (in 200 μL medium to yield a final concentration of 0.1% v/v) to the wells of plates. A single compound was designated with four wells followed by incubation of plates for 96h at 37°C. After incubation, medium was removed completely from the plates followed by addition of MTT (0.4 mg/mL in medium) to each well and subsequent incubation of plates for 3h. MTT (along with the medium) was removed and DMSO (150μL) was added to each well of the culture plates, followed by vertexing and subsequent measurement of absorbance (at 540 nm) using microplate reader. The data are shown as percentage inhibition of proliferation in comparison with controls containing 0.1% DMSO.

The subject of data set [3] is four human cancer cell lines (HT-29, Panc-1, A-549, MCF-7). Put plainly: Average antiproliferative activity (GI50) over four cancer cell lines. The following applies: average IC50 against the four cancer cell lines. The format is cell-based. How it is done:
(§1) 4.2.1.2. Assay for antiproliferative effect
(§2) To explore the antiproliferative potential of compounds MTT assay was performed according to previously reported procedure using different cell lines to explore the antiproliferative potential of […]
(§3) calculate the total nuclear DNA, a fluorescent dye (propidium iodide, PI) is used which can attach to the DNA, thus offering a quick and precise technique. PI cannot pass through the cell membrane and its signal intensity can be considered as directly proportional to quantity of cellular DNA.
(§4) Cells whose cell membranes are damaged or have changed permeability are counted as dead ones.
(§5) The assay was performed by seeding the cells of different cell lines at a density of 3000-7500 cells/well (in 200µl medium) in culture plates followed by incubation for 24h at 37 °C in humidified 5% CO2/95% air atmospheric conditions. The medium was removed; the compounds were added to the plates at 10 µM concentrations (in 0.1% DMSO) in triplicates, followed by incubation for 48 h. DMSO (0.1%) was used as control. After incubation, medium was removed […]
(§6) 80 °C, the plates were allowed to freeze for 24 h, followed by thawing at 25 °C. […]
(§7) (Polar-Star BMG Tech) was used to record the readings at excitation and emission wavelengths of 530 and 620 nm for each well. The percentage cytotoxicity of compounds was calculated using […]
(§8) Where ATC= Absorbance of treated cells and AC= Absorbance of control. Erlotinib was used as positive control in the assay.

The test system of data set [4] is lung cancer (A-549) cell line. Put plainly: Antiproliferative MTT assay, A-549. The following applies: Homo sapiens, A549, A-549 lung cancer cells, read-out: Antiproliferative activity IC50 ± SEM A-549. In kind it is cell-based. On the procedure:
as §1, §2, §3, §4, §5, §6, §7, §8

The subject of data set [5] is breast cancer (MCF-7) cell line. Put plainly: Antiproliferative MTT assay, MCF-7. The format is cell-based. The following applies: Homo sapiens, MCF7, MCF-7 breast cancer cells, read-out: Antiproliferative activity IC50 ± SEM MCF-7. On the procedure: as §1, §2, §3, §4, §5, §6, §7, §8
Data set [6] has as its system pancreatic cancer (Panc-1) cell line. Put plainly: Antiproliferative MTT assay, Panc-1. The following applies: Homo sapiens, Panc-1 pancreatic cancer cells, read-out: Antiproliferative activity IC50 ± SEM Panc-1. In kind it is cell-based. How it is done: as §1, §2, §3, §4, §5, §6, §7, §8

SMILES strings stand for the structures.

`C=CCn1c(SCc2nc(-c3ccccc3)no2)nc2ccccc2c1=O` [Compound 9m, 2-((3-Phenyl-1,2,4-oxadiazol-5-yl)methylthio)-3-allylquinazolin-4(3H)-one]: the melting point lay in the range of 110 to 112 °C. The half-inhibitory concentration (IC50) in data set [1] came out at 62 ± 6 nM. Further, the viability at 96 h, 50 µM in data set [2] was determined as 92%. Besides, the GI50 in data set [3] is 63 nM. Also, the IC50 in data set [4] was found to be 62 ± 6 nM. Moreover, the IC50 in data set [5] came out at 65 ± 6 nM. In addition, the IC50 in data set [6] amounted to 64 ± 6 nM.
For the compound `O=c1c2ccccc2nc(SCc2nc(-c3ccccc3)no2)n1-c1ccccc1` [Compound 9a, 2-((3-Phenyl-1,2,4-oxadiazol-5-yl)methylthio)-3-phenylquinazolin-4(3H)-one], the melting point is 162 to 164 °C. Moreover, the IC50 in data set [1] was determined as 48 ± 4 nM. In data set [2], this compound showed a viability at 96 h, 50 µM of 90%. In data set [3], this compound returned a concentration for 50% growth inhibition (GI50) of 48 nM. In data set [4], the IC50 was found to be 46 ± 4 nM. Besides, the half-inhibitory concentration (IC50) in data set [5] came to 50 ± 4 nM. Moreover, the IC50 in data set [6] stood at 48 ± 4 nM.
`COc1ccc(-c2noc(CSc3nc4ccccc4c(=O)n3-c3ccc(C)cc3)n2)cc1` [Compound 9f, 2-((3-(4-Methoxyphenyl)-1,2,4-oxadiazol-5-yl)methylthio)-3-p-tolylquinazolin-4(3H)-one] came in with a melting point of 165 to 167 °C. Further, the half-inhibitory concentration (IC50) in data set [1] is 52 ± 5 nM. The compound further yielded a viability at 96 h, 50 µM in data set [2] of 92%. In data set [3], this compound showed a GI50 of 52 nM. For the same compound, the half-inhibitory concentration (IC50) in data set [4] stood at 50 ± 4 nM. Also, the half-inhibitory concentration (IC50) in data set [5] is 53 ± 5 nM. Also, the IC50 in data set [6] was 52 ± 5 nM.
Consider `C=CCn1c(SCc2nc(-c3ccc(OC)cc3)no2)nc2ccccc2c1=O` [Compound 9o, 2-((3-(4-Methoxyphenyl)-1,2,4-oxadiazol-5-yl)methylthio)-3-allylquinazolin 4(3H)-one], for which the melting point was in the range of 122 to 124 °C. Moreover, in data set [1], the IC50 is 57 ± 5 nM. This compound also showed a viability at 96 h, 50 µM in data set [2] of 89%. Moreover, the GI50 in data set [3] came to 57 nM. Further, the IC50 in data set [4] amounted to 56 ± 4 nM. In addition, the half-maximal inhibitory concentration (IC50) in data set [5] was 59 ± 5 nM. The half-maximal inhibitory concentration (IC50) in data set [6] came to 57 ± 5 nM.
As for `C=CCn1c(SCc2nc(-c3ccc(Cl)cc3)no2)nc2ccccc2c1=O` [Compound 9n, 2-((3-(4-Chlorophenyl)-1,2,4-oxadiazol-5-yl)methylthio)-3-allylquinazolin-4(3H)-one], the melting point fell in the range of 115 to 117 °C. In data set [1], the IC50 is 44 ± 4 nM. Moreover, the viability at 96 h, 50 µM in data set [2] was determined as 91%. The compound further yielded a 50% growth inhibitory concentration (GI50) in data set [3] of 45 nM. The IC50 in data set [4] stood at 43 ± 4 nM. The IC50 in data set [5] is 47 ± 4 nM. In addition, in data set [6], the half-inhibitory concentration (IC50) was found to be 45 ± 4 nM.
`Cc1ccc(-n2c(SCc3nc(-c4ccc(Cl)cc4)no3)nc3ccccc3c2=O)cc1` [Compound 9e, 2-((3-(4-Chlorophenyl)-1,2,4-oxadiazol-5-yl)methylthio)-3-p-tolylquinazolin-4(3H)-one] came in with a melting point of 156 to 158 °C. Also, the IC50 in data set [1] was 42 ± 4 nM. This compound came in with a viability at 96 h, 50 µM in data set [2] of 91%. This compound showed a GI50 in data set [3] of 42 nM. Besides, in data set [4], the IC50 turned out to be 40 ± 3 nM. Moreover, in data set [5], the IC50 was found to be 44 ± 4 nM. In data set [6], the IC50 worked out at 42 ± 4 nM.
As for `C#Cc1cccc(Nc2ncnc3cc(OCCOC)c(OCCOC)cc23)c1` [Erlotinib, reference compound], the IC50 amounted to 30 ± 3 nM in data set [1], 30 ± 3 nM in data set [4], 40 ± 3 nM in data set [5] and 30 ± 3 nM in data set [6]. The same compound yielded a GI50 in data set [3] of 33 nM.
In the case of `COc1ccc(-c2noc(CSc3nc4ccccc4c(=O)n3-c3cccc(C)c3)n2)cc1` [Compound 9i, 2-((3-(4-Methoxyphenyl)-1,2,4-oxadiazol-5-yl)methylthio)-3-m-tolylquinazolin-4(3H)-one], the melting point fell in the range of 194 to 196 °C. The IC50 in data set [1] amounted to 68 ± 6 nM. In data set [2], this compound gave a viability at 96 h, 50 µM of 91%. Also, the GI50 in data set [3] was found to be 67 nM. Besides, the IC50 in data set [4] came out at 65 ± 6 nM. The 50% inhibitory concentration (IC50) in data set [5] is 69 ± 6 nM. Further, the half-inhibitory concentration (IC50) in data set [6] was determined as 66 ± 6 nM.
Compound `Cc1ccc(-n2c(SCc3nc(-c4ccccc4)no3)nc3ccccc3c2=O)cc1` [Compound 9d, 2-((3-Phenyl-1,2,4-oxadiazol-5-yl)methylthio)-3-p-tolylquinazolin-4(3H)-one] showed a melting point of 168 to 170 °C. Besides, the 50% inhibitory concentration (IC50) in data set [1] turned out to be 55 ± 5 nM. The compound further displayed a viability at 96 h, 50 µM in data set [2] of 90%. The compound also returned a GI50 in data set [3] of 55 nM. Besides, the half-maximal inhibitory concentration (IC50) in data set [4] is 54 ± 4 nM. In addition, the half-inhibitory concentration (IC50) in data set [5] turned out to be 58 ± 5 nM. The 50% inhibitory concentration (IC50) in data set [6] was 54 ± 5 nM.
On to `CCn1c(SCc2nc(-c3ccccc3)no2)nc2ccccc2c1=O` [Compound 9j, 2-((3-Phenyl-1,2,4-oxadiazol-5-yl)methylthio)-3-ethylquinazolin-4(3H)-one], for which the melting point is 114 to 116 °C. In addition, the half-maximal inhibitory concentration (IC50) in data set [1] turned out to be 68 ± 6 nM. The compound also yielded a viability at 96 h, 50 µM in data set [2] of 90%. Moreover, the 50% growth inhibitory concentration (GI50) in data set [3] amounted to 70 nM. In data set [4], the IC50 came out at 69 ± 6 nM. The IC50 in data set [5] came out at 76 ± 7 nM. The IC50 in data set [6] was determined as 68 ± 6 nM.
Consider `Cc1cccc(-n2c(SCc3nc(-c4ccccc4)no3)nc3ccccc3c2=O)c1` [Compound 9g, 2-((3-Phenyl-1,2,4-oxadiazol-5-yl)methylthio)-3-m-tolylquinazolin-4(3H)-one], for which the melting point was 170 to 172 °C. Also, the concentration for half-maximal inhibition (IC50) in data set [1] came out at 50 ± 5 nM. Besides, the viability at 96 h, 50 µM in data set [2] amounted to 90%. Besides, it took 50 nM to inhibit growth in data set [3] by half (GI50). Besides, the 50% inhibitory concentration (IC50) in data set [4] was found to be 49 ± 4 nM. The concentration for half-maximal inhibition (IC50) in data set [5] amounted to 52 ± 5 nM. For the same compound, the IC50 in data set [6] was 50 ± 5 nM.
